Laboratory results as given in US12357711B2, “PSMA binding dual mode radiotracer and therapeutic” (Technische Universität München, priority 2019, dated 2025).

Test system: SCID mice
Assay: Preclinical dosimetry from biodistribution in mice, extrapolated to 70-kg Standard Adult (OLINDA/EXM 1.0)
Type: in vivo
Details: […] bladder voiding interval
Procedure: 3-5 mice were injected per timepoint with a mean 25.6±3.6 MBq of 18F-rhPSMA-7 and 28.5±4.8 MBq of 18F-rhPSMA-7.3, respectively. Mice, severe combined immunodeficiency (SCID) were used for the experiments.
Mice were sacrificed at the following timepoints: • ^18F-rhPSMA-7: 10, 20, 40, 60, 120 and 180 minutes after administration. • ^18F-rhPSMA-7.3: 10, 60, 120, 180 and 300 minutes after administration.
Urine, blood, heart, lung, spleen, pancreas, liver, stomach (emptied), small intestine (emptied), large intestine (emptied), kidneys, bladder, testis, fat, muscle (partial, femoral), femur, tail and brain. Urine was collected with a pipette in the CO2 gas chamber. In case of missing urination in the chamber the bladder was aspirated with an insulin syringe. Blood was withdrawn instantly after sacrifice with an insulin syringe from the heart. All other tissues and organs were dissected and transferred directly in plastic containers.
The counting rates of measurement samples were automatically corrected for decay. The radioactivity distribution ratios (unit: percentage of the injected dose (% ID) in the measurement samples were determined using the equation below. The sum of the counting rates from all measurement samples obtained from one mouse was designated as the counting rate for administrated radioactivity.
The radioactivity distribution ratio per unit weight of the measurement sample (unit: % ID/g) excluding urine and feces samples was determined by using the equation below. The weight of the measurement sample was determined by subtraction of the empty measurement container from the container including the sample.
For consistency of statistical calculations for each radiotracer the same number of time-points for ^18F-rhPSMA-7 and ^18F-rhPSMA-7.3 was used. Therefore, for ^18F-rhPSMA-7 the 10 min and 20 min time points were combined creating a 15 min endpoint.
The time-integral of activity for the accumulation in the significant source organs (AUCs) were generated both with numerical integration and physical decay according to J Juan et al., Journal of Pharmaceutical Sciences, 1993, 82:762-763.
In brief, to calculate a human dosimetry from the biodistribution in the mice, an extrapolation was necessary to account for the differences between the animals and humans. Normal-organ radiation doses were estimated for the 70-kg Standard Adult anatomic model using time-depending organ activity concentrations (in percent of the injected dose per gram, % ID/g) and total-body activities measured in the biodistribution studies in mice.
Tissue activity concentrations in mice were converted to tissue fractional activities in the 70-kg Standard Adult using the relative fractional organ masses in the Standard Adult and the “standard” 25-gramm mouse. Time-dependent total-body activity was fit to an exponential function and the difference between the injected activity and the total-body activity was assumed to be excreted to the urine because activity concentrations in the liver and GI tracer were low at all time points studied.
Organ residence time was calculated by numerical integration using the trapezoidal rule and the rest-of-body ^18F residence times was calculated as the difference between the total-body residence time and the sum of the organ and urine residence times. The bladder contents residence time was estimated using the dynamic voiding model in the OLINDA/EXM 1.0 dosimetry software. Finally, the Standard Adult mean organ dose equivalents (in mSv/MBq) and effective dose (also in mSv/MBq) were then calculated using OLIN DA/EXM 1.0.
Final calculation of radiation absorbed dose and dosimetry from biodistribution in mice: The tissues or organs in which a significant accumulation of radioactivity occurs (i.e., source organ) were kidney, spleen, lung, liver and heart. With respect to activity accumulation and clearance, a rapid clearance from blood and clearance to urine but relatively slow build-up in kidney was found.

Substance: [^19F][^natGa]D/L-Dap-R/S-DOTAGA-rhPSMA7 [rhPSMA7-rac]
- Adrenals ED Cont.: 3.90E−05 mSv/MBq
- Adrenals EDE Cont.: 0.00E000 mSv/MBq
- Adrenals dose Alpha: 0.00E000 mSv/MBq
- Adrenals dose Beta: 1.95E−03 mSv/MBq
- Adrenals dose Photon: 5.85E−03 mSv/MBq
- Adrenals dose Total: 7.80E−03 mSv/MBq
- Brain ED Cont.: 2.24E−05 mSv/MBq
- Brain EDE Cont.: 0.00E000 mSv/MBq
- Brain dose Alpha: 0.00E000 mSv/MBq
- Brain dose Beta: 1.95E−03 mSv/MBq
- Brain dose Photon: 2.54E−03 mSv/MBq
- Brain dose Total: 4.49E−03 mSv/MBq
- Breasts ED Cont.: 2.12E−04 mSv/MBq
- Breasts EDE Cont.: 6.36E−04 mSv/MBq
- Breasts dose Alpha: 0.00E000 mSv/MBq
- Breasts dose Beta: 1.95E−03 mSv/MBq
- Breasts dose Photon: 2.29E−03 mSv/MBq
- Breasts dose Total: 4.24E−03 mSv/MBq
- Gallbladder Wall ED Cont.: 0.00E000 mSv/MBq
- Gallbladder Wall EDE Cont.: 0.00E000 mSv/MBq
- Gallbladder Wall dose Alpha: 0.00E000 mSv/MBq
- Gallbladder Wall dose Beta: 1.95E−03 mSv/MBq
- Gallbladder Wall dose Photon: 5.54E−03 mSv/MBq
- Gallbladder Wall dose Total: 7.49E−03 mSv/MBq
- Heart Wall ED Cont.: 0.00E000 mSv/MBq
- Heart Wall EDE Cont.: 0.00E000 mSv/MBq
- Heart Wall dose Alpha: 0.00E000 mSv/MBq
- Heart Wall dose Beta: 8.82E−04 mSv/MBq
- Heart Wall dose Photon: 3.54E−03 mSv/MBq
- Heart Wall dose Total: 4.42E−03 mSv/MBq
- Kidneys ED Cont.: 3.25E−04 mSv/MBq
- Kidneys EDE Cont.: 3.91E−03 mSv/MBq
- Kidneys dose Alpha: 0.00E000 mSv/MBq
- Kidneys dose Beta: 4.70E−02 mSv/MBq
- Kidneys dose Photon: 1.80E−02 mSv/MBq
- Kidneys dose Total: 6.51E−02 mSv/MBq
- LLI Wall ED Cont.: 1.93E−03 mSv/MBq
- LLI Wall EDE Cont.: 9.66E−04 mSv/MBq
- LLI Wall dose Alpha: 0.00E000 mSv/MBq
- LLI Wall dose Beta: 1.95E−03 mSv/MBq
- LLI Wall dose Photon: 1.41E−02 mSv/MBq
- LLI Wall dose Total: 1.61E−02 mSv/MBq
- Liver ED Cont.: 2.13E−04 mSv/MBq
- Liver EDE Cont.: 0.00E000 mSv/MBq
- Liver dose Alpha: 0.00E000 mSv/MBq
- Liver dose Beta: 6.35E−04 mSv/MBq
- Liver dose Photon: 3.63E−03 mSv/MBq
- Liver dose Total: 4.27E−03 mSv/MBq
- Lungs ED Cont.: 5.16E−04 mSv/MBq
- Lungs EDE Cont.: 5.16E−04 mSv/MBq
- Lungs dose Alpha: 0.00E000 mSv/MBq
- Lungs dose Beta: 1.25E−03 mSv/MBq
- Lungs dose Photon: 3.04E−03 mSv/MBq
- Lungs dose Total: 4.30E−03 mSv/MBq
- Muscle ED Cont.: 3.84E−05 mSv/MBq
- Muscle EDE Cont.: 0.00E000 mSv/MBq
- Muscle dose Alpha: 0.00E000 mSv/MBq
- Muscle dose Beta: 1.95E−03 mSv/MBq
- Muscle dose Photon: 5.73E−03 mSv/MBq
- Muscle dose Total: 7.68E−03 mSv/MBq
- Osteogenic Cells ED Cont.: 8.93E−05 mSv/MBq
- Osteogenic Cells EDE Cont.: 2.68E−04 mSv/MBq
- Osteogenic Cells dose Alpha: 0.00E000 mSv/MBq
- Osteogenic Cells dose Beta: 4.18E−03 mSv/MBq
- Osteogenic Cells dose Photon: 4.75E−03 mSv/MBq
- Osteogenic Cells dose Total: 8.93E−03 mSv/MBq
- Ovaries ED Cont.: 3.09E−03 mSv/MBq
- Ovaries EDE Cont.: 3.87E−03 mSv/MBq
- Ovaries dose Alpha: 0.00E000 mSv/MBq
- Ovaries dose Beta: 1.95E−03 mSv/MBq
- Ovaries dose Photon: 1.35E−02 mSv/MBq
- Ovaries dose Total: 1.55E−02 mSv/MBq
- Pancreas ED Cont.: 4.04E−05 mSv/MBq
- Pancreas EDE Cont.: 0.00E000 mSv/MBq
- Pancreas dose Alpha: 0.00E000 mSv/MBq
- Pancreas dose Beta: 1.95E−03 mSv/MBq
- Pancreas dose Photon: 6.13E−03 mSv/MBq
- Pancreas dose Total: 8.08E−03 mSv/MBq
- Red Marrow ED Cont.: 8.16E−04 mSv/MBq
- Red Marrow EDE Cont.: 8.16E−04 mSv/MBq
- Red Marrow dose Alpha: 0.00E000 mSv/MBq
- Red Marrow dose Beta: 1.39E−03 mSv/MBq
- Red Marrow dose Photon: 5.41E−03 mSv/MBq
- Red Marrow dose Total: 6.80E−03 mSv/MBq
- Skin ED Cont.: 4.93E−05 mSv/MBq
- Skin EDE Cont.: 0.00E000 mSv/MBq
- Skin dose Alpha: 0.00E000 mSv/MBq
- Skin dose Beta: 1.95E−03 mSv/MBq
- Skin dose Photon: 2.98E−03 mSv/MBq
- Skin dose Total: 4.93E−03 mSv/MBq
- Small Intestine ED Cont.: 5.18E−05 mSv/MBq
- Small Intestine EDE Cont.: 0.00E000 mSv/MBq
- Small Intestine dose Alpha: 0.00E000 mSv/MBq
- Small Intestine dose Beta: 1.95E−03 mSv/MBq
- Small Intestine dose Photon: 8.40E−03 mSv/MBq
- Small Intestine dose Total: 1.04E−02 mSv/MBq
- Spleen ED Cont.: 1.30E−04 mSv/MBq
- Spleen EDE Cont.: 1.56E−03 mSv/MBq
- Spleen dose Alpha: 0.00E000 mSv/MBq
- Spleen dose Beta: 1.59E−02 mSv/MBq
- Spleen dose Photon: 1.01E−02 mSv/MBq
- Spleen dose Total: 2.61E−02 mSv/MBq
- Stomach Wall ED Cont.: 8.40E−04 mSv/MBq
- Stomach Wall EDE Cont.: 0.00E000 mSv/MBq
- Stomach Wall dose Alpha: 0.00E000 mSv/MBq
- Stomach Wall dose Beta: 1.95E−03 mSv/MBq
- Stomach Wall dose Photon: 5.05E−03 mSv/MBq
- Stomach Wall dose Total: 7.00E−03 mSv/MBq
- Testes ED Cont.: 0.00E000 mSv/MBq
- Testes EDE Cont.: 0.00E000 mSv/MBq
- Testes dose Alpha: 0.00E000 mSv/MBq
- Testes dose Beta: 1.95E−03 mSv/MBq
- Testes dose Photon: 9.69E−03 mSv/MBq
- Testes dose Total: 1.16E−02 mSv/MBq
- Thymus ED Cont.: 2.59E−05 mSv/MBq
- Thymus EDE Cont.: 0.00E000 mSv/MBq
- Thymus dose Alpha: 0.00E000 mSv/MBq
- Thymus dose Beta: 1.95E−03 mSv/MBq
- Thymus dose Photon: 3.24E−03 mSv/MBq
- Thymus dose Total: 5.18E−03 mSv/MBq
- Thyroid ED Cont.: 2.59E−04 mSv/MBq
- Thyroid EDE Cont.: 1.55E−04 mSv/MBq
- Thyroid dose Alpha: 0.00E000 mSv/MBq
- Thyroid dose Beta: 1.95E−03 mSv/MBq
- Thyroid dose Photon: 3.23E−03 mSv/MBq
- Thyroid dose Total: 5.18E−03 mSv/MBq
- Total Body ED Cont.: 0.00E000 mSv/MBq
- Total Body EDE Cont.: 0.00E000 mSv/MBq
- Total Body dose Alpha: 0.00E000 mSv/MBq
- Total Body dose Beta: 2.37E−03 mSv/MBq
- Total Body dose Photon: 5.39E−03 mSv/MBq
- Total Body dose Total: 7.77E−03 mSv/MBq
- ULI Wall ED Cont.: 4.63E−05 mSv/MBq
- ULI Wall EDE Cont.: 0.00E000 mSv/MBq
- ULI Wall dose Alpha: 0.00E000 mSv/MBq
- ULI Wall dose Beta: 1.95E−03 mSv/MBq
- ULI Wall dose Photon: 7.31E−03 mSv/MBq
- ULI Wall dose Total: 9.26E−03 mSv/MBq
- Urinary Bladder Wall ED Cont.: 1.77E−02 mSv/MBq
- Urinary Bladder Wall EDE Cont.: 2.12E−02 mSv/MBq
- Urinary Bladder Wall dose Alpha: 0.00E000 mSv/MBq
- Urinary Bladder Wall dose Beta: 2.45E−01 mSv/MBq
- Urinary Bladder Wall dose Photon: 1.08E−01 mSv/MBq
- Urinary Bladder Wall dose Total: 3.54E−01 mSv/MBq
- Uterus ED Cont.: 1.40E−04 mSv/MBq
- Uterus EDE Cont.: 1.68E−03 mSv/MBq
- Uterus dose Alpha: 0.00E000 mSv/MBq
- Uterus dose Beta: 1.95E−03 mSv/MBq
- Uterus dose Photon: 2.61E−02 mSv/MBq
- Uterus dose Total: 2.80E−02 mSv/MBq
